We go through 7 molecules from ChEMBL document CHEMBL1129687, “Antitumor activity of S-(p-bromobenzyl)glutathione diesters in vitro: a structure-activity study” (J Med Chem, 1996).

Molecules are shown by their SMILES.

This assay can be described thus: The growth inhibitory concentration of compound was determined by logistic regression of viable cell number on Human leukemia 60 cells. The class given is functional, 60 cell.
With `NC(CCC(=O)NC(CSCc1ccc(Br)cc1)C(=O)NCC(=O)OC1CCCCC1)C(=O)OC1CCCCC1` (configuration not stated), the GC50 is 29.2 µM. The figure for `CC(C)OC(=O)CNC(=O)C(CSCc1ccc(Br)cc1)NC(=O)CCC(N)C(=O)OC(C)C` (configuration not stated) is 19.6 µM; for `CCCCOC(=O)CNC(=O)C(CSCc1ccc(Br)cc1)NC(=O)CCC(N)C(=O)OCCCC` (configuration not stated) it is 18.5 µM. `NC(CCC(=O)NC(CSCc1ccc(Br)cc1)C(=O)NCC(=O)OC1CCCC1)C(=O)OC1CCCC1` (configuration not stated) yielded a GC50 of 4.2 µM. The result for `CCOC(=O)CNC(=O)C(CSCc1ccc(Br)cc1)NC(=O)CCC(N)C(=O)OCC` (configuration not stated) reads 8.3 µM. In the case of `CCCCCOC(=O)CNC(=O)C(CSCc1ccc(Br)cc1)NC(=O)CCC(N)C(=O)OCCCCC` (configuration not stated), the GC50 was 22.2 µM. Turning to `CCCOC(=O)CNC(=O)C(CSCc1ccc(Br)cc1)NC(=O)CCC(N)C(=O)OCCC` (configuration not stated), the GC50 worked out at 7.8 µM.
